# How the values were obtained:
# [1] = molecular target: glyceraldehyde-3-phosphate dehydrogenase (GAPDH) (Homo sapiens, UniProt P04406); details: reported in J. Biol. Chem. 273:5821-5828; cited from earlier work
# [2] = test system: homozygous dy^W/dy^W mice deficient in laminin-α2 expression; assay: Voluntary exploratory locomotory activity in a new cage (FIG. 6); format: in vivo, mouse; details: dy^W/dy^W mice at 6 weeks of age; for locomotory activity in the 10-minute test period: vehicle 236 seconds, p-value<0.05
# Method: The therapeutically relevant effect of N-(dibenz(b,f)oxepin-10-ylmethyl)-N-methyl-N-prop-2-ynylammonium maleate (omigapil) on the voluntary locomotion was tested in a mouse model for MDC1A deficient in laminin-α2 expression. Starting at day fifteen, homozygous dy^W/dy^W mice were treated with omigapil at doses of 0.1 or 1 mg/kg body weight. Their individual exploratory locomotory activity was assessed at 6 weeks of age and compared to age-matched dy^W/dy^W mice treated with vehicle only. The treatment regime was as described in example 1.
# It can be concluded that omigapil increases locomotory activity in an animal model for muscular dystrophy caused by laminin α2-deficiency.
# Newborn dy^W/dy^W mice were genotyped and randomly assigned to the vehicle or the 0.1 and 1 mg/kg omigapil groups. The voluntary locomotory activity was measured within the first 10 minutes after having placed the animal in a new cage. […] The difference in activity is statistically significant for both omigapil treatments (asterisk: p-value<0.05). In total 13, 15 and 10 animals were included into the vehicle, the 0.1 and the 1 mg/kg omigapil group, respectively.
# [3] = test system: homozygous dy^W/dy^W mice deficient in laminin-α2 expression; assay: Body weight gain in mouse model for MDC1A (FIG. 2); format: in vivo; details: vehicle maximally 11%
# Method: Example 2 describes the therapeutically relevant effect of N-(dibenz(b,f)oxepin-10-ylmethyl)-N-methyl-N-prop-2-ynylammonium maleate (omigapil) on the body weight gain in a mouse model for MDC1A deficient in laminin-α2 expression. Starting at day fifteen, homozygous dy^W/dy^W mice were treated with omigapil. Their individual body weights were assessed daily and compared to homozygous dy^W/dy^W mice treated with vehicle only (control group). For this, omigapil was given to dy^W/dy^W-mice at doses of 0.1 or 1 mg/kg body weight, respectively. The treatment regime was as described in example 1.
# Newborn dy^W/dy^W mice were genotyped and randomly assigned to the vehicle or the 0.1 and 1 mg/kg omigapil groups. The individual body weights were assessed daily and the mean body weight were calculated every week. The percentage of mice above an average body weight of twelve grams is shown grouped according to age (between 6 and 11 weeks) for each treatment group. In total 27, 34 and 25 animals were included into the vehicle, the 0.1 and the 1 mg/kg omigapil group, respectively.
# [4] = test system: homozygous dy^W/dy^W mice deficient in laminin-α2 expression; assay: Skeletal deformation (kyphosis) by X-ray analysis and visual scoring (FIG. 5); format: in vivo, mouse; details: dy^W/dy^W mice at 11 weeks of age, 1 mg/kg; example animal; vehicle 66°
# Method: The beneficial and therapeutically relevant effect of N-(dibenz(b,f)oxepin-10-ylmethyl)-N-methyl-N-prop-2-ynylammonium maleate (omigapil) on the skeletal deformation (i.e. kyphosis) was tested in a mouse model for MDC1A deficient in laminin-α2 expression. For this, homozygous dy^W/dy^W mice were treated with omigapil (at a dose of 1 mg/kg body weight) and their kyphosis was scored at 11 weeks of age by visual inspection and X-ray analysis and compared to the extent of kyphosis seen in homozygous dy^W/dy^W mice treated with vehicle only and untreated wildtype mice. The treatment regime was as described in example 1.
# Spinal deformation was documented by X-ray pictures of an age-matched wild-type mouse (A), a vehicle-treated (B) and an 1 mg/kg omigapil-treated dy^W/dy^W mouse (C). The kyphosis was quantified in living animals using a visual scoring system (1: barely detectable, 2: mild, 3: moderate, 4: severe) (D). 9 vehicle- and 7 omigapil-treated animals were analyzed.
# [5] = test system: homozygous dy^W/dy^W mice deficient in laminin-α2 expression; assay: Muscle fiber size distribution in Triceps muscle (FIG. 4); format: in vivo, mouse; details: dy^W/dy^W mice at 6 weeks of age, 0.1 mg/kg; vehicle 8%; p-value<0.05
# Method: The effect of N-(dibenz(b,f)oxepin-10-ylmethyl)-N-methyl-N-prop-2-ynylammonium maleate (omigapil) on muscle fiber size distribution was tested in a mouse model for MDC1A deficient in laminin-α2 expression. Muscle fiber diameters were analyzed in Triceps muscle of 6 weeks old dy^W/dy^W mice treated with 0.1 mg/kg body weight omigapil or with vehicle only. The treatment regime was as described in example 1.
# It can be concluded from this increase in large diameter myofibers that omigapil improves muscle histology in an animal model for muscular dystrophy caused by laminin α2-deficiency.
# Newborn dy^W/dy^W mice were genotyped and randomly assigned to the vehicle or omigapil group. The myofiber diameters were measured following methods known to the skilled artist (Briguet, A., Courdier-Fruh, I., Foster, M., Meier, T., Magyar, J. P. (2004)—“Histological parameters for the quantitative assessment of muscular dystrophy in the mdx-mouse”, Neuromuscul Disord 14(10): 675-82). For each muscle all muscle fibers of one cross section were included into the analysis. 7 animals were analyzed per treatment group. 8% of the myofibers in the Triceps muscle of the vehicle-treated dy^W/dy^W mice had muscle diameters above 50 micrometers at 6 weeks of age while 15% of myofibres in the omigapil-treated group fulfilled this criteria. Asterisk: p-value<0.05.
# [6] = test system: homozygous dy^W/dy^W mice deficient in laminin-α2 expression; assay: Skeletal muscle apoptosis (TUNEL) in Triceps muscle (FIG. 3); format: in vivo, mouse; details: dy^W/dy^W mice at 6 weeks of age, 0.1 mg/kg
# Method: The effect of N-(dibenz(b,f)oxepin-10-ylmethyl)-N-methyl-N-prop-2-ynylammonium maleate (omigapil) on skeletal muscle apoptosis was tested in a mouse model for MDC1A deficient in laminin-α2 expression. Starting at day fifteen, homozygous dy^W/dy^W mice were treated with omigapil. The number of apoptotic myonuclei were analyzed and compared to the number of apoptotic myonuclei determined in homozygous dy^W/dy^W mice treated with vehicle only and to the number of apoptotic myonuclei determined in untreated wild-type mice. For this, omigapil was given to dy^W/dy^W-mice at a dose of 0.1 mg/kg body weight according to the treatment regime described in example 1. […]
# Newborn dy^W/dy^W mice were genotyped and randomly assigned to the vehicle or omigapil group. The apoptotic myonuclei in the Triceps foreleg muscle were determined by counting muscle fibers positively stained for Terminal dUTP nick end labeling (TUNEL). […] The relative number of apoptotic myofibres was calculated by dividing the number of TUNEL positive myonuclei by the total number of myofibres. 7 animals were analyzed per treatment group. 1.1% of the myofibers in the Triceps muscle of the vehicle-treated dy^W/dy^W mice had apoptotic myonuclei at 6 weeks of age while only 0.7% apoptotic myofibres were detected in the omigapil-treated group. […]
# [7] = test system: homozygous dy^W/dy^W mice deficient in laminin-α2 expression; assay: Survival rate in mouse model for MDC1A (Kaplan-Meier, FIG. 1); format: in vivo; details: 0.1 mg/kg once daily (i.p., then gavage from 4th week), 1 out of 13 animals, vehicle 6 out of 15 (=40%)
# Method: The effect of N-(dibenz(b,f)oxepin-10-ylmethyl)-N-methyl-N-prop-2-ynylammonium maleate (omigapil) on the survival rate was tested in a mouse model for MDC1A deficient in laminin-α2 expression. Starting at day fifteen, homozygous dy^W/dy^W mice were treated with omigapil. Their survival rate was compared to homozygous dy^W/dy^W mice treated with vehicle only. For this, omigapil was dissolved in 0.5% w/v ethanol to a final concentration of 20 μg/ml. The treatment regime was as follows: omigapil (20 μg/ml in 0.5% ethanol) was applied to 3 week old dy^W/dy^W-mice by intraperitoneal (i.p.) injection once per day; from the 4th week of age onwards mice received the same concentration of omigapil once per day by gavage feeding instead of i.p. application. The final dose of omigapil given to dy^W/dy^W-mice at all times was 0.1 mg/kg body weight, once daily following the guidance as described elsewhere (Sagot Y. et al. (2000)—An orally active anti-apoptotic molecule (CGP 3466B) preserves mitochondria and enhances survival in an animal model of motoneuron disease. Br. J. Pharmacol. 131:721-728). Control mice received the equivalent amount of vehicle only. […]
# glyceraldehyde-3-phosphate dehydrogenase (GAPDH), sequence (P04406 whole entry, species assumed): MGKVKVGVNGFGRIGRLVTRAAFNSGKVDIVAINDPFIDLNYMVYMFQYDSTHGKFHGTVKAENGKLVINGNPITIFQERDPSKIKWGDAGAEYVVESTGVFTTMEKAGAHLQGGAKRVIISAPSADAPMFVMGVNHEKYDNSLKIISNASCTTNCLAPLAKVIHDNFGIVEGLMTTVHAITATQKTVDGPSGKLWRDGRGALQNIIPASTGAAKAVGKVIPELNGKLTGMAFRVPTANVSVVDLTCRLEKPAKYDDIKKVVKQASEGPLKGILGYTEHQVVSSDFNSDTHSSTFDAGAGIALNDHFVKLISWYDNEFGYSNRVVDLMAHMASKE
Compound,binding to GAPDH [1],increase in locomotory activity compared to vehicle group ([2]; 0.1 mg/kg) [%],locomotory activity in the 10-minute test period ([2]; 0.1 mg/kg) [seconds],increase in locomotory activity compared to vehicle group ([2]; 1 mg/kg) [%],locomotory activity in the 10-minute test period ([2]; 1 mg/kg) [seconds],percentage of mice that reached a body weight above 12 grams within the first 11 weeks of age ([3]; 0.1 mg/kg omigapil) [%],percentage of mice that reached a body weight above 12 grams within the first 11 weeks of age ([3]; 1 mg/kg omigapil) [%],"angle spanned by the spine (kyphosis, X-ray) [4] [°]",myofibres with muscle fiber diameters above 50 micrometers in the Triceps muscle [5] [%],reduction in apoptotic myofibres compared to vehicle ([6]; Triceps muscle) [%],apoptotic myofibres in the Triceps muscle (TUNEL) ([6]; vehicle 1.1%) [%],animals died within the first 80 days of age [7] [%]
"C#CCN(C)CC1=Cc2ccccc2Oc2ccccc21 [compound of formula (I), N-(dibenz(b,f)oxepin-10-ylmethyl)-N-methyl-N-prop-2-ynylamine]",binds to glyceraldehyde-3-phosphate dehydrogenase (GAPDH),,,,,,,,,,,
"N-(dibenz(b,f)oxepin-10-ylmethyl)-N-methyl-N-prop-2-ynylammonium maleate [omigapil]",,39,330,26,301,25,43,89,15,35,0.7,8

# Reference: patent US7999002B2, “Use of N-(dibenz(b,f)oxepin-10-ylmethyl)-N-methyl-N-prop-2-ynylamine (omigapil) or a pharmaceutically acceptable addition salt thereof for the prophylaxis and/or treatment of muscular dystrophy” (Santhera Pharmaceuticals (Schweiz) AG, priority 2005, dated 2011)
